Results published in US20240352036A1, “CRYSTALLINE FORMS OF RAS INHIBITORS, COMPOSITIONS CONTAINING THE SAME, AND METHODS OF USE THEREOF” (Revolution Medicines, Inc., priority 2023, published 2024).
Values belong to the compound of their own block, whether it stands above or below them.

Key:
Format in all cases: physicochemical
[1] = XRPD monitoring over time of pure Form 1 from a saturated diethyl ether slurry
Procedure: The formation of Form 2 is indicated by the presence of an intense peak at 4.8° 2θ (FIG. 2), which is absent in pure samples of Form 1 (FIG. 1 and FIG. 3). To study the formation of Form 2, a saturated slurry of Compound A was prepared in diethyl ether, which produced pure Form 1 at time=0 hr, and this pure sample was monitored over time using XRPD analysis. A shoulder peak at 4.8° 2θ was detected after approx. 2 hours and increased in intensity compared to the original Form 1 peaks after 4 and 17 days (FIG. 4).

[2] = variable humidity XRPD of crystalline Form 1; settings: 25° C., XRPD at each RH
Procedure: In another method, crystalline Form 1 was subjected to variable humidity XRPD experiments. In this experiment, two relative humidity (RH) cycles were applied at 25° C. XRPD analysis was carried out in each specific relative humidity. Cycle 1: 40% RH (initial)-40% RH (3 h)-60% RH (3 h)-80% RH (3 h)-95% RH (3 h)-80% RH (3 h)-60% RH (3 h)-40% RH (3 h)-20% RH (3 h) 0% RH (3 h); Cycle 2: 20% RH (3 h)-40% RH (3 h).

[3] = storage under ambient conditions followed by XRPD; settings: two weeks of storage under ambient conditions (room temperature)

time until the Form 2 shoulder peak at 4.8° 2θ was detected ([1]; pure Form 1 at time=0 hr from saturated diethyl ether slurry, peak increased in intensity after 4 and 17 days): approx. 2 hours
Compound: CCn1c(-c2cccnc2[C@H](C)OC)c2c3cc(ccc31)N1CCO[C@@H](C[C@H](NC(=O)[C@H](C(C)C)N(C)C(=O)C3(F)CCN(C(=O)C#CC(C)(C)N(C)C)CC3)C(=O)N3CCC[C@H](N3)C(=O)OCC(C)(C)C2)C1 (atropisomer, axis not shown) [Form 1]
solid form stability over time (XRPD) ([1]; pure Form 1 monitored up to 17 days): may produce a mixture of Forms 1 and 2 over time
solid form conversion at relative humidity higher than 80% RH ([2]; two RH cycles 0-95% RH, 3 h per step, RH higher than 80%): converted or partially converted to Form 2

solid form conversion at relative humidity lower than 80% ([2]; two RH cycles, RH lower than 80%): converted back to Form 1
Compound: CCn1c(-c2cccnc2[C@H](C)OC)c2c3cc(ccc31)N1CCO[C@@H](C[C@H](NC(=O)[C@H](C(C)C)N(C)C(=O)C3(F)CCN(C(=O)C#CC(C)(C)N(C)C)CC3)C(=O)N3CCC[C@H](N3)C(=O)OCC(C)(C)C2)C1 (atropisomer, axis not shown) [Form 2]

solid form stability on storage (XRPD) [3]: converted to a disordered material
Compound: CCn1c(-c2cccnc2[C@H](C)OC)c2c3cc(ccc31)N1CCO[C@@H](C[C@H](NC(=O)[C@H](C(C)C)N(C)C(=O)C3(F)CCN(C(=O)C#CC(C)(C)N(C)C)CC3)C(=O)N3CCC[C@H](N3)C(=O)OCC(C)(C)C2)C1 (atropisomer, axis not shown) [Form 4]
